The record followed here is ChEMBL document CHEMBL1130856, “A new series of cyclic amino acids as inhibitors of S-adenosyl L-methionine synthetase” (Bioorg Med Chem Lett, 1998).

The term Ki denotes the dissociation constant of the complex between target and ligand, obtained from inhibition or displacement.

Test [1] deals with T1, S-adenosylmethionine synthase isoform type-1 (Rattus norvegicus, UniProt P13444). Put plainly: Compound was evaluated for its inhibitory activity against recombinant S-adenosyl L-Methionine synthetase (alpha-isoform) in rat liver.
T1 sequence (P13444 whole entry, canonical isoform): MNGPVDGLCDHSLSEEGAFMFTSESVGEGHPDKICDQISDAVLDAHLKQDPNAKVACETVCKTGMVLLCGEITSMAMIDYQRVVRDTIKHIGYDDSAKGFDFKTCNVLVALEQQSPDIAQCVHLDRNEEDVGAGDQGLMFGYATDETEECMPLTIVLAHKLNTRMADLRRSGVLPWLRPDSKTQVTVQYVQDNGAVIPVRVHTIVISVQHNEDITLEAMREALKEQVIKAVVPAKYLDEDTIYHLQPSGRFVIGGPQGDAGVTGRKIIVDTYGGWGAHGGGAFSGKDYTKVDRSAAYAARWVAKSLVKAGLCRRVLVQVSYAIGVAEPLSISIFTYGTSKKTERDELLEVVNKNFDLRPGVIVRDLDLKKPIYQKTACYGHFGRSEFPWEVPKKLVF
Test [2] deals with T1, S-adenosylmethionine synthase isoform type-1. Put plainly: Compound was evaluated for its inhibitory activity against recombinant S-adenosyl L-Methionine synthetase (alpha-isoform) in rat liver; No significant activity.

Turning to `CO/C=C\[C@H](N)C(=O)O`, in test [1], the Ki was determined as 56 µM.
`NC1(C(=O)O)CCOCC1`: in test [1], the Ki turned out to be 1000 µM.
With `N[C@]1(C(=O)O)CCSC1`, the Ki entry in test [2] is “Not Active”; in test [1] it was 1040 µM.
Take `N[C@]1(C(=O)O)CCOC1`: the results for the Ki result in test [2] and in test [1] were “Not Active” and 750 µM, respectively.
Regarding `NC1(C(=O)O)CCSCC1`, in test [1], the Ki came to 3000 µM.
Consider `NC1(C(=O)O)CCCC1` [CYCLOLEUCINE], for which the Ki in test [1] is 516 µM.
